In PMC7316778 (Nature Communications, 2020):
“And” between values parts separate entries of the source, which are not always exact repeats. Equal values may be shown once. Read-outs that look alike come from different tables or passages of the source.

Key:
FES^WT = target: T1, FES^WT (Homo sapiens, UniProt P07332); assay: In vitro TR-FRET kinase assay; format: biochemical; details: TR-FRET assay, 5 µM ATP; n = 3; read-out: pIC50 FES^WT (converted)
T1 construct: human FES cDNA encoding residues 448–822 or human FER cDNA encoding residues 448–820 was amplified by PCR; made in house; host or cells: E. coli BL21(DE3), co-expressing YopH phosphatase
T1 sequence (P07332 448-822): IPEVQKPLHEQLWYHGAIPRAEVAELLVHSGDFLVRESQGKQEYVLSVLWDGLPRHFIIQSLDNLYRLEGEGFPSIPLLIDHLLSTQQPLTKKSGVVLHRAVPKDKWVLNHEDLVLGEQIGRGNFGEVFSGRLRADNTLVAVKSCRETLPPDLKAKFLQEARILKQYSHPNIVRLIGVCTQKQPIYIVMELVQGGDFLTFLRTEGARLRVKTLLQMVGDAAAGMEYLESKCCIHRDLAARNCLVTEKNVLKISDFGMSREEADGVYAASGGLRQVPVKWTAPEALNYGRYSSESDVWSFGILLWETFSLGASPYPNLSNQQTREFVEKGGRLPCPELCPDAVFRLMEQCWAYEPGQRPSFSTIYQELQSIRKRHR
Experimental: All measurements were performed in triplicate.

FGR = FGR (Homo sapiens, UniProt P09769); assay: SelectScreen kinase assay
Sequence of FGR (P09769 whole entry): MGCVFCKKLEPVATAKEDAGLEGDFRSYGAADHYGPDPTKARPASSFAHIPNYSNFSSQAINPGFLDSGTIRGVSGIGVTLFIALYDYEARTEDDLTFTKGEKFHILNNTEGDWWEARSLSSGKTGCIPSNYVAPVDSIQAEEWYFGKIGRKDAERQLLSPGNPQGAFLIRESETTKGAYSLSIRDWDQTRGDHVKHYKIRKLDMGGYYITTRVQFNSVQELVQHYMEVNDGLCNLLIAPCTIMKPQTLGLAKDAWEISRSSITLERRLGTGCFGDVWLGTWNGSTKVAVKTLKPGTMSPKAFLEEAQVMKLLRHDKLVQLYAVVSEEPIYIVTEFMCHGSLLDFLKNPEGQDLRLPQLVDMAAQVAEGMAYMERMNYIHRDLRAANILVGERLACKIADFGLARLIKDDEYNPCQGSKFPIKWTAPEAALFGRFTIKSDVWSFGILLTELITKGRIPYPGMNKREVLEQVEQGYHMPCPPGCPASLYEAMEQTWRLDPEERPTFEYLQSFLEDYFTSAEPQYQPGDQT
Experimental: (§1) Selectivity profiling assays were performed by the Invitrogen SelectScreen™ Services. […] The concentration of ATP was selected to be equal to the KM, unless indicated otherwise.

JAK1 = JAK1 (Homo sapiens, UniProt P23458); assay: SelectScreen kinase assay; details: for Inhibition at 1 µM (%): JAK1, ZLYTE, ATP Km app
Experimental: as §1

LCK = LCK (Homo sapiens, UniProt P06239); assay: SelectScreen kinase assay
Experimental: as §1

PDGFRA (PDGFR alpha) = PDGFRA (PDGFR alpha) (Homo sapiens, UniProt P16234); assay: SelectScreen kinase assay
Experimental: as §1

PI4K2B (PI4K2 beta) = PI4K2B (PI4K2 beta) (Homo sapiens, UniProt Q8TCG2); assay: SelectScreen kinase assay; details: for Inhibition at 1 µM (%): PI4K2B (PI4K2 beta), Adapta, ATP 10
Experimental: as §1

PTK2B (FAK2) = PTK2B (FAK2) (Homo sapiens, UniProt Q14289); assay: SelectScreen kinase assay
Experimental: as §1

ROCK1 = ROCK1 (Homo sapiens, UniProt Q13464); assay: SelectScreen kinase assay
Sequence of ROCK1 (Q13464 whole entry): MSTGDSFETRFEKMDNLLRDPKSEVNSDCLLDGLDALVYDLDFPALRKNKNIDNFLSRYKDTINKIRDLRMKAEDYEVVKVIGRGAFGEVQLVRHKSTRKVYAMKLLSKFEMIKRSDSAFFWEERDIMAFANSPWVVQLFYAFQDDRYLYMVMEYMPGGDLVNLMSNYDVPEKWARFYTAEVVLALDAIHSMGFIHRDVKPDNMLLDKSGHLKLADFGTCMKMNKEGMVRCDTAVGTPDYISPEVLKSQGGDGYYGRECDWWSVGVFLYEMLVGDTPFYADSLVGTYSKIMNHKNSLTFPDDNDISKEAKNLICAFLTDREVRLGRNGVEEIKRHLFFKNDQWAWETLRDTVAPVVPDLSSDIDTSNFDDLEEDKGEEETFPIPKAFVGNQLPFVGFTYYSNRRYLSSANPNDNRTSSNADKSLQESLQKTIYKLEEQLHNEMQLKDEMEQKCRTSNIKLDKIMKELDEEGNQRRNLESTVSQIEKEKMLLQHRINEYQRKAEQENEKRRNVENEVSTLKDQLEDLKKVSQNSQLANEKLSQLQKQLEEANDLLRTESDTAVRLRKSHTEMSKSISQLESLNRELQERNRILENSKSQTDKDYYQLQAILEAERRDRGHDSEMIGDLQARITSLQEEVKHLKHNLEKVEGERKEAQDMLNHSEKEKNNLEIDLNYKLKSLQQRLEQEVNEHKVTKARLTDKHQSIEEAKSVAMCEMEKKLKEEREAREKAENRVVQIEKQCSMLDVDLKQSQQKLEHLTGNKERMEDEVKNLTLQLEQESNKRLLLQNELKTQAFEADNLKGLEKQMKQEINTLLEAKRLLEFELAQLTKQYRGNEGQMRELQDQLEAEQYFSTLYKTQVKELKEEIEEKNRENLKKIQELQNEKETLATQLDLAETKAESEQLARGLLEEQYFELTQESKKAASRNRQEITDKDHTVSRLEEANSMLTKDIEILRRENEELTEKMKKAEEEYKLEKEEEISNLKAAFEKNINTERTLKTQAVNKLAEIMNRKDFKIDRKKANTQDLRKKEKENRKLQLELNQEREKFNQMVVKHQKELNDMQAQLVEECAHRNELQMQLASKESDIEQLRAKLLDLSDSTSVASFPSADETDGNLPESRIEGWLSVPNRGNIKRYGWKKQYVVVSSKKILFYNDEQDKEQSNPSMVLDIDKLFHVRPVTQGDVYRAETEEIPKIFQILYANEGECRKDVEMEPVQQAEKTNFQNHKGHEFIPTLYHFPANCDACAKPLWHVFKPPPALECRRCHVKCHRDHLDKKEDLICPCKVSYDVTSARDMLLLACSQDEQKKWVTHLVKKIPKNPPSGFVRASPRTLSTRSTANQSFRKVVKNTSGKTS
Experimental: as §1

ROS1 = ROS1 (Homo sapiens, UniProt P08922); assay: SelectScreen kinase assay
Sequence of ROS1 (P08922 28-2347, species assumed): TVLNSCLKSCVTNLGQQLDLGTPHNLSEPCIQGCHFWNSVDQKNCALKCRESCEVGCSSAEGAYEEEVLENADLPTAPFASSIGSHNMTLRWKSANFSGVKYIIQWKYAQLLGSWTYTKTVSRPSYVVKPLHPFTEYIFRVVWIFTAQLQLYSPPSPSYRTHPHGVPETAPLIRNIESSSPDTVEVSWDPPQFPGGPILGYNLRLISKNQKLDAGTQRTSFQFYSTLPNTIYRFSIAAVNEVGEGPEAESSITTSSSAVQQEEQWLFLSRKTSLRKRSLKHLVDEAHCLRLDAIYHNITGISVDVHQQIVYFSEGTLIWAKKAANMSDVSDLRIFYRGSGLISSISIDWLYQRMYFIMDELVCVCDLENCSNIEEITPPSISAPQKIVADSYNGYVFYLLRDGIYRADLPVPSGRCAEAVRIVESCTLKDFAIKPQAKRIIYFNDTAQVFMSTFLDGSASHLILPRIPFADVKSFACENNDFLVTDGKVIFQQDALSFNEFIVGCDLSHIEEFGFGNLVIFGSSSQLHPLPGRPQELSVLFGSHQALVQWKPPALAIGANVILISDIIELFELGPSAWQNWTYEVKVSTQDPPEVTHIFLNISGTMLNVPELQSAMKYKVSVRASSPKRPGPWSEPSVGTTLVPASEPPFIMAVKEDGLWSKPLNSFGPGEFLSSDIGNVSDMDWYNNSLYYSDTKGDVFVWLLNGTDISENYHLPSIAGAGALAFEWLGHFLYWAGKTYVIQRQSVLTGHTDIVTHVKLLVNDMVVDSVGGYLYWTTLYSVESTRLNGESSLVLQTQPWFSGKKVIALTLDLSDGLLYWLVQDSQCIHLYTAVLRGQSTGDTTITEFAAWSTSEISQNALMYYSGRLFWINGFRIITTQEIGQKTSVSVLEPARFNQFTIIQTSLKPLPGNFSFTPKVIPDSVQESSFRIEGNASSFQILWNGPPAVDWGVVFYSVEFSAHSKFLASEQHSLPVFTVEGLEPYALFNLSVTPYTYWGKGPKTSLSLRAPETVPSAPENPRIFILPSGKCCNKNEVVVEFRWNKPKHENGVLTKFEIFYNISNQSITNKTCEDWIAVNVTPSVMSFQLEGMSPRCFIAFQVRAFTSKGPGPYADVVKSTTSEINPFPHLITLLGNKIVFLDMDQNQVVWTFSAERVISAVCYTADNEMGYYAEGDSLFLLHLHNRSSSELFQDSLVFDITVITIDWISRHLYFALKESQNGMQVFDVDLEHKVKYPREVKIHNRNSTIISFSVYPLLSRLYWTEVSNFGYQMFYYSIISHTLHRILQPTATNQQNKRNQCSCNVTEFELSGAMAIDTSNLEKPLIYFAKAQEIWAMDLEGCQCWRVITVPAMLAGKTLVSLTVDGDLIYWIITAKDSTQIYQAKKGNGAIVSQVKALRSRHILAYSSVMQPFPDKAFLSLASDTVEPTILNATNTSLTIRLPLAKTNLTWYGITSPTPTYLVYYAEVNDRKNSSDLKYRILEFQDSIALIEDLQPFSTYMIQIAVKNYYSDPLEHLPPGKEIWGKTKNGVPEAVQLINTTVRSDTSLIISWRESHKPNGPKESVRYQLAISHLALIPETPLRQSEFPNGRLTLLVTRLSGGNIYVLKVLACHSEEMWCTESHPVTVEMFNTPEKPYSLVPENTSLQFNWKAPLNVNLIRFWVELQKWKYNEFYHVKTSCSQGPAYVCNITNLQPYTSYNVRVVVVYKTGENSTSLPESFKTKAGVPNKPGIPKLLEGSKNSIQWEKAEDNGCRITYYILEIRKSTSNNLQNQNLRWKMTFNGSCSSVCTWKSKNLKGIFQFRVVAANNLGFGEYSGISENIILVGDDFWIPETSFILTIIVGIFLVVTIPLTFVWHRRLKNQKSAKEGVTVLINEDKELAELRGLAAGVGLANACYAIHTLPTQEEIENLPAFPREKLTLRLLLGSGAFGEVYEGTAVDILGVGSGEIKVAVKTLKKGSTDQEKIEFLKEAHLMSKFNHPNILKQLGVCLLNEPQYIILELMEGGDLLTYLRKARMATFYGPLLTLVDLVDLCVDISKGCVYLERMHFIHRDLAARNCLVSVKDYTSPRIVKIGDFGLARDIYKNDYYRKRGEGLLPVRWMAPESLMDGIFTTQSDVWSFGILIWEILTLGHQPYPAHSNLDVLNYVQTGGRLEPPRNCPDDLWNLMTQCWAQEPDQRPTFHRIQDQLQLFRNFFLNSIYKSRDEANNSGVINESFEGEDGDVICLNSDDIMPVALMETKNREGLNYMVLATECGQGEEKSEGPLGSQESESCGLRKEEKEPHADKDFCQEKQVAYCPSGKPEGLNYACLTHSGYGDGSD
Experimental: as §1

SRC = SRC (Homo sapiens, UniProt P12931); assay: SelectScreen kinase assay
Sequence of SRC (P12931 whole entry): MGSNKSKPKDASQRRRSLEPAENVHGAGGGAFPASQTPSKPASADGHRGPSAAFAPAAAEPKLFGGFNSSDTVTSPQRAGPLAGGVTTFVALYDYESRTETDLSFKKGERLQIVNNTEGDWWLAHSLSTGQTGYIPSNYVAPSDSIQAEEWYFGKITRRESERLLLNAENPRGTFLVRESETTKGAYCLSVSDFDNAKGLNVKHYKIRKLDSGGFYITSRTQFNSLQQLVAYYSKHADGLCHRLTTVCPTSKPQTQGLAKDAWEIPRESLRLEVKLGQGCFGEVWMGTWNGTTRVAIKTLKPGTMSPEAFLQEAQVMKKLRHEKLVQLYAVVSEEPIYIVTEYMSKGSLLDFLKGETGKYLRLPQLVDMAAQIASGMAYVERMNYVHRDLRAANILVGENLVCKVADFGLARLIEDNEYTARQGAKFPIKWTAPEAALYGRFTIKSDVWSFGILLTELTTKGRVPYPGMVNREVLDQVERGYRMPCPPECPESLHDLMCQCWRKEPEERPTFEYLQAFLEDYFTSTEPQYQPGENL
Experimental: as §1

SRPK1 = SRPK1 (Homo sapiens, UniProt Q96SB4); assay: SelectScreen kinase assay
Experimental: as §1

STK17A (DRAK1) = target: T2, STK17A (DRAK1) (Homo sapiens, UniProt Q9UEE5); assay: SelectScreen kinase assay
T2 sequence (Q9UEE5 1-414): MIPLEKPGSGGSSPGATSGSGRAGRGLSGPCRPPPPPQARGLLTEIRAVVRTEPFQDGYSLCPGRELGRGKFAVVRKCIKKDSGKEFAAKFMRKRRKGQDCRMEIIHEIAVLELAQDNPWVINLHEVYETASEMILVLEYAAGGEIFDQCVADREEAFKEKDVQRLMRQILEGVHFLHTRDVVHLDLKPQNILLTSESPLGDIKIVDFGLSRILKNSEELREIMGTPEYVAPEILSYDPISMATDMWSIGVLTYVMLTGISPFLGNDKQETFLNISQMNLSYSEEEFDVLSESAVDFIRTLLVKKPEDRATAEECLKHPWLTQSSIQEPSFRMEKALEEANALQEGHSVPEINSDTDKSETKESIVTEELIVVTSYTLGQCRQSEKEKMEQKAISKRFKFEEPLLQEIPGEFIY
Experimental: as §1

STK32C (YANK3) = STK32C (YANK3) (Homo sapiens, UniProt Q86UX6); assay: SelectScreen kinase assay
Experimental: as §1

TESK1 = TESK1 (Homo sapiens, UniProt Q15569); assay: SelectScreen kinase assay
Experimental: as §1

[1] = 1 h, 1 μM WEL028, 1 h preincubation
[2] = 1 h, log[inhibitor] (M) -5.00, ZLYTE, ATP Km app
[3] = 1 h, log[inhibitor] (M) -5.48, ZLYTE, ATP Km app
[4] = 1 h, log[inhibitor] (M) -5.95, ZLYTE, ATP Km app
[5] = 1 h, log[inhibitor] (M) -6.43, ZLYTE, ATP Km app
[6] = 1 h, log[inhibitor] (M) -6.91, ZLYTE, ATP Km app
[7] = IC50 on that kinase divided by IC50 on FES^S700C
[8] = 1 µM, ZLYTE, ATP Km app, listed as WEL028, 1 µM
[9] = read-out: Inhibition at 1 µM (%), 1 µM, ZLYTE, ATP Km app
[10] = 1 µM, LanthaScreen Binding, listed as WEL028, 1 µM
[11] = read-out: Inhibition at 1 µM (%), 1 µM, LanthaScreen Binding

For `C#CCOc1ccc(Nc2ncc(Cl)c(Nc3ccccc3NC(=O)C=C)n2)c(OC)c1` [Compound 6], the IC50 (FES^WT) was greater than 3000 nM, the inhibition at 1 µM (FGR; [1]) was 10% and the “Inhibition at 1 µM (%)” value (FGR; FGR, 1 µM, ZLYTE, ATP Km app, listed as WEL028, 1 µM) was 12%. For the same compound, the inhibition at 1 µM (FGR; read-out: Inhibition at 1 µM (%), FGR, 1 µM, ZLYTE, ATP Km app) was 7%, the “Inhibition (%)” value (JAK1; 1 μM WEL028, 1 h preincubation) was -3% and the “Inhibition at 1 µM (%)” value (JAK1) was -2%. The “Inhibition at 1 µM (%)” value (JAK1; listed as WEL028, 1 µM) was -3%, the inhibition at 1 µM (LCK; [1]) was 5% and the “Inhibition at 1 µM (%)” value (LCK; LCK, 1 µM, ZLYTE, ATP Km app, listed as WEL028, 1 µM) was 6%. The inhibition at 1 µM (LCK; read-out: Inhibition at 1 µM (%), LCK, 1 µM, ZLYTE, ATP Km app) was 4%, the IC50 (PDGFRA (PDGFR alpha)) was 794 nM and the inhibition at 1 µM (PDGFRA (PDGFR alpha); [1]) was 63%. The inhibition at 10 µM (PDGFRA (PDGFR alpha); [2]) was 90%, the inhibition at 3.31 µM (PDGFRA (PDGFR alpha); [3]) was 93% and the inhibition at 1.12 µM (PDGFRA (PDGFR alpha); [4]) was 61%. The inhibition at 0.372 µM (PDGFRA (PDGFR alpha); [5]) was 22%, the inhibition at 0.123 µM (PDGFRA (PDGFR alpha); [6]) was 7% and the Apparent fold selectivity (PDGFRA (PDGFR alpha); [7]) was 184 fold. The “Inhibition at 1 µM (%)” value (PDGFRA (PDGFR alpha); PDGFRA (PDGFR alpha), 1 µM, ZLYTE, ATP Km app, listed as WEL028, 1 µM) was 58%, the inhibition at 1 µM (PDGFRA (PDGFR alpha); read-out: Inhibition at 1 µM (%), PDGFRA (PDGFR alpha), 1 µM, ZLYTE, ATP Km app) was 68% and the inhibition at 1 µM (PI4K2B (PI4K2 beta); [1]) was 2%. The “Inhibition at 1 µM (%)” value (PI4K2B (PI4K2 beta)) was 3%, the “Inhibition at 1 µM (%)” value (PI4K2B (PI4K2 beta); listed as WEL028, 1 µM) was 0% and the “Inhibition at 1 µM (%)” value (PTK2B (FAK2); [8]) was 37%. The inhibition at 1 µM (PTK2B (FAK2); [1]) was 34%, the inhibition at 1 µM (PTK2B (FAK2); [9]) was 32% and the “Inhibition at 1 µM (%)” value (ROCK1; [8]) was -6% and 0%. The inhibition at 1 µM (ROCK1; [1]) was -3%, the IC50 (ROS1) was greater than 10000 nM and the “Inhibition at 1 µM (%)” value (ROS1; [8]) was 52%. For the same compound, the inhibition at 1 µM (ROS1; [1]) was 56%, the inhibition at 10 µM (ROS1; [2]) was 76% and the inhibition at 3.31 µM (ROS1; [3]) was 80%. It also gave an inhibition at 1.12 µM (ROS1; [4]) of 53%, an inhibition at 0.372 µM (ROS1; [5]) of 42% and an inhibition at 0.123 µM (ROS1; [6]) of 23%. The inhibition at 0.00151 µM (ROS1; 1 h, log[inhibitor] (M) -8.82, ZLYTE, ATP Km app) was 6%, the Apparent fold selectivity (ROS1; [7]) was greater than 238 fold and the inhibition at 1 µM (ROS1; [9]) was 60%. The “Inhibition at 1 µM (%)” value (SRC; [8]) was 8%, the inhibition at 1 µM (SRC; [1]) was 9% and the inhibition at 1 µM (SRC; [9]) was 10%. For the same compound, the “Inhibition at 1 µM (%)” value (SRPK1; [8]) was 2% and 11%, the inhibition at 1 µM (SRPK1; [1]) was 7% and the “Inhibition at 1 µM (%)” value (STK17A (DRAK1); [10]) was 10%. It also gave an inhibition at 1 µM (STK17A (DRAK1); [1]) of 9%, an inhibition at 1 µM (STK17A (DRAK1); [11]) of 8% and an inhibition at 1 µM (STK32C (YANK3); 1 h) of 3%. The inhibition at 1 µM (STK32C (YANK3); read-out: Inhibition at 1 µM (%)) was 3%, the “Inhibition at 1 µM (%)” value (TESK1; [10]) was 9% and the inhibition at 1 µM (TESK1; [1]) was 10%. It also gave an inhibition at 1 µM (TESK1; [11]) of 10%.
